Test system: MC4L2 mice tumor
Experiment: Sonography of MC4L2 mice tumor after injection of the free drug, with or without electrostatic field
Details: for trace of tumor after the second injection period: every 3 days
Experimental: Here, three injection periods of Cisplatin were carried out every 3 days for a group of mice having a MC4L2 mice tumor as an example of triple-positive breast cancer. About 20 mg/kg of Cisplatin was applied for a Control sample with a MC4L2 mice tumor without applying an electrostatic field.
Here, four injection periods of Doxorubicin were carried out every 3 days for a group of mice having a MC4L2 mice tumor as an example of triple-positive breast cancer. About 10 mg/kg of Doxorubicin was applied for a Control sample with a MC4L2 mice tumor without applying an electrostatic field. […] All sonography images were taken after about 10 days of treatments, and all drug injections were done every about 3 days.

SMILES	tumor outcome in sonography images (about 5 mg/kg Cisplatin followed by electrostatic field, FIG. 5B)	trace of tumor after the second injection period (about 5 mg/kg Cisplatin per period, then DC electrostatic field -60 V to -120 V via conductive patch, sample mouse No. 1)	reduction in tumor volume (about 20 mg/kg Cisplatin, without electrostatic field, FIG. 4B vs FIG. 4A)	tumor outcome in sonography images (about 1 mg/kg Doxorubicin followed by electrostatic field, sonography after about 10 days, FIG. 9B)	trace of tumor after the second injection period (about 1 mg/kg Doxorubicin per period, then DC electrostatic field 60 V to 120 V via conductive patch, sample mouse No. 2)
N.N.[Cl][Pt][Cl] [Cisplatin]	removed completely	no observable trace of tumor	about 60%		
COc1cccc2c1C(=O)c1c(O)c3c(c(O)c1C2=O)C[C@@](O)(C(=O)CO)C[C@@H]3O[C@H]1C[C@H](N)[C@H](O)[C@H](C)O1 [Doxorubicin]				removed completely	no observable trace of tumor

Reference: patent publication US20210001138A1, “ELECTROSTATIC DRUG DELIVERY” (Nano Hesgarsazan Salamat Arya, priority 2019, published 2021)
